Measurements: patent US4575508A, “2-Substituted 1-(3'-aminoalkyl)-1,2,3,4-tetrahydro-β-carbolines, and their use as antiarrhythmic agents” (BASF Aktiengesellschaft, priority 1982, dated 1986)
Like-named read-outs stand apart in the source and are kept apart here.

Key:
Format in all cases: in vivo, male Sprague-Dawley rats
[1] = system: aconitine-induced arrhythmia; test: Aconitine-induced arrhythmia in rats, oral administration (antiarrhythmic activity); details: for ED50: Rattus norvegicus, po, 1 h, read-out: Aconitine-induced arrhythmia ED 50% (dose which prolongs the aconitine infusion duration by 50%); for times more effective than quinidine on aconitine-induced arrhythmia / R.A. (relative activity, based on quinidine = 1.00): rat, oral; for R.A. (relative activity, based on quinidine = 1.00): aconitine-induced arrhythmia; for antiarrhythmic action (in words): general statement
Description: (§1) To investigate the antiarrhythmic activity, the substances were administered orally to male Sprague-Dawley rats each weighing 200-250 g. 45 minutes later, the animals were anesthetized with sodium thiobutabarbital (100 mg/kg, administered intraperitoneally). Aconitine was used as the arrhythmogenic substance, and was infused intravenously 60 minutes after administration of the substance (dosage rate: 0.005 mg per kg per min.). […] The onset of these arrhythmias could be delayed by means of antiarrhythmics, the delay achieved being dose-dependent.
Linear relationships exist between the logarithms of the doses (mg/kg) of the test substances and the relative prolongation of the aconitine infusion duration (Δ%), from which relationships the dose which prolongs the infusion duration by 50% can be determined, as the ED 50%.
The known antiarrhythmic quinidine was used as a comparative substance.

[2] = Toxicity: dose at which first cardiotoxic or neurotoxic symptoms occur, rat, oral administration; details: in vivo
Description: as §1
(§2) For further characterization of the substances, the dose at which the first cardiotoxic symptoms (changes in the initial ECG) or neurotoxic symptoms (coordination disturbances, convulsions, etc.) occurred was determined from the decimal-geometric dosage progression (factor .cuberoot.10) used in the experiments.

rat = test: as above
Description: as §1, §2

Q: For `CC(=O)N1CCc2c([nH]c3ccccc23)C1CCCN1CCN(C)CC1` (stereo not drawn) [Example 21, 1-[3'-(4-Methylpiperazin-1-yl)-propyl]-2-acetyl-1,2,3,4-tetrahydro-β-carboline], which ED50 [1] is on record?
A: 14.6 mg/kg

Q: What about the “times more effective than quinidine on aconitine-induced arrhythmia” value [1] of the same compound?
A: 3 times

Q: What about the “R.A. (relative activity, based on quinidine = 1.00)” value [1] of the same compound?
A: 2.98

Q: What about the selectivity ratio ([2]; po) of the same compound?
A: 15

Q: What about the “Toxicity Dose (dose after the application of which the first toxic symptoms are observed)” value (from here on “Toxicity Dose”) (rat; in vivo, po) of the same compound?
A: 215 mg/kg

Q: Which ED50 [1] does the source give for `CCCN(CCC)CCCC1c2c(c3ccccc3n2C)CCN1C(C)=O` (stereo not drawn) [Example 42, 1-(3'-Dipropylaminopropyl)-2-acetyl-9-methyl-1,2,3,4-tetrahydro-β-carboline] here?
A: 0.842 mg/kg

Q: What about the “antiarrhythmic action (in words)” value [1] of the same compound?
A: particularly active

Q: What about the “R.A. (relative activity, based on quinidine = 1.00)” value [1] of the same compound?
A: 51.66

Q: What about the selectivity ratio ([2]; po) of the same compound?
A: 12

Q: And the “Toxicity Dose” value (rat; in vivo, po)?
A: 10 mg/kg

Q: For `CCCCNCCCC1c2[nH]c3ccccc3c2CCN1C(C)=O` (stereo not drawn) [Example 28, 1-(3'-n-Butylaminopropyl)-2-acetyl-1,2,3,4-tetrahydro-β-carboline], which ED50 [1] is on record?
A: 12.4 mg/kg

Q: What about the “R.A. (relative activity, based on quinidine = 1.00)” value [1] of the same compound?
A: 3.51

Q: What about the selectivity ratio ([2]; po) of the same compound?
A: 17

Q: What about the “Toxicity Dose” value (rat; in vivo, po) of the same compound?
A: 215 mg/kg

Q: What does the source list for `CCCN(CCCC1c2c(c3ccccc3n2C)CCN1C(C)=O)C(C)C` (stereo not drawn) [Example 46, 1-[3'-(Isopropylpropyl)-aminopropyl]-2-acetyl-9-methyl-1,2,3,4-tetrahydro-β-carboline]?
A: ED50 [1]: 0.732 mg/kg; times more effective than quinidine on aconitine-induced arrhythmia [1]: 59 times; R.A. (relative activity, based on quinidine = 1.00) [1]: 59.43; selectivity ratio ([2]; oral, measure of the therapeutic index, read-out: Toxicity Q (quotient of the toxic dose and the antiarrhythmically effective dose, ED 50%)): 14; Toxicity Dose (dose after the application of which the first toxic symptoms are observed) (rat; oral, cardiotoxic or neurotoxic symptoms): 4.64 mg/kg

Q: For `CC(=O)N1CCc2c(n(C)c3ccccc23)C1CCCN(CC(C)C)CC(C)C` (stereo not drawn) [Example 43, 1-[3'-(Di-2-methylpropyl)-aminopropyl]-2-acetyl-9-methyl-1,2,3,4-tetrahydro-β-carboline], which ED50 [1] is on record?
A: 0.803 mg/kg

Q: What about the “antiarrhythmic action (in words)” value [1] of the same compound?
A: particularly active

Q: What about the “R.A. (relative activity, based on quinidine = 1.00)” value [1] of the same compound?
A: 54.17

Q: And the selectivity ratio ([2]; po)?
A: 13

Q: And the “Toxicity Dose” value (rat; in vivo, po)?
A: 10 mg/kg

Q: Which ED50 [1] does the source give for `C=C[C@H]1C[N@@]2CC[C@H]1C[C@@H]2[C@@H](O)c1ccnc2ccc(OC)cc12` [quinidine, reference compound] here?
A: 43.5 mg/kg

Q: For `CCn1c2c(c3ccccc31)CCN(C(C)=O)C2CCCN1CCN(C)CC1` (stereo not drawn) [Example 44, 1-[3'-(4-Methylpiperazin-1-yl)-propyl]-2-acetyl-9-ethyl-1,2,3,4-tetrahydro-β-carboline], which ED50 [1] is on record?
A: 9.21 mg/kg

Q: And the “R.A. (relative activity, based on quinidine = 1.00)” value [1]?
A: 4.72

Q: What about the selectivity ratio ([2]; po) of the same compound?
A: 23

Q: What about the “Toxicity Dose” value (rat; in vivo, po) of the same compound?
A: 215 mg/kg

Q: With `CCCCN(CCCC)CCCC1c2[nH]c3ccccc3c2CCN1C(C)=O` (stereo not drawn) [Example 31, 1-[3'-(Di-n-butyl)-aminopropyl]-2-acetyl-1,2,3,4-tetrahydro-β-carboline] as the compound, how does the ED50 [1] read?
A: 1.71 mg/kg

Q: What about the “R.A. (relative activity, based on quinidine = 1.00)” value [1] of the same compound?
A: 25.44

Q: What about the selectivity ratio ([2]; po) of the same compound?
A: 13

Q: What about the “Toxicity Dose” value (rat; in vivo, po) of the same compound?
A: 21.5 mg/kg

Q: With `CC(=O)N1CCc2c([nH]c3ccccc23)C1CCCN(C)C` (stereo not drawn) [Example 4, 1-(3'-Dimethylaminopropyl)-2-acetyl-1,2,3,4-tetrahydro-β-carboline] as the compound, how does the ED50 [1] read?
A: 13.5 mg/kg

Q: What about the “times more effective than quinidine on aconitine-induced arrhythmia” value [1] of the same compound?
A: 3 times

Q: What about the “R.A. (relative activity, based on quinidine = 1.00)” value [1] of the same compound?
A: 3.22

Q: And the selectivity ratio ([2]; po)?
A: 16

Q: And the “Toxicity Dose” value (rat; in vivo, po)?
A: 215 mg/kg

Q: Which ED50 [1] does the source give for `CCC(C)N(CCCC1c2[nH]c3ccccc3c2CCN1C(C)=O)C(C)CC` (stereo not drawn) [Example 33, 1-[3'-(Di-2-butyl)-aminopropyl]-2-acetyl-1,2,3,4-tetrahydro-β-carboline] here?
A: 1.57 mg/kg

Q: What about the “R.A. (relative activity, based on quinidine = 1.00)” value [1] of the same compound?
A: 27.71

Q: And the selectivity ratio ([2]; po)?
A: 14

Q: And the “Toxicity Dose” value (rat; in vivo, po)?
A: 21.5 mg/kg
